According to patent publication US11236052B2, “Aminobenzimidazole derivatives, treatments, and methods of inhibiting histone deacetylase” (TRANSLATIONAL DRUG DEVELOPMENT, LLC, priority 2017, dated 2022):
Like-named read-outs stand apart in the source and are kept apart here.

Key:
H460 = experiment: CellTiter-Glo cell viability assay, H460; format: cell-based; details: NSCLC; for IC50: Homo sapiens, NCI-H460, H460, 72 hours
Method: (§1) Cell Viability Assay—Cell viability was measured by the CellTiter-Glo® cell viability assay Promega (Madison, Wis.). The CellTiter-Glo® Luminescent Cell Viability Assay is a homogeneous method to determine the number of viable cells in culture based on quantitation of the ATP present, which signals the presence of metabolically active cells. Following treatment, CellTiter-Glo® is added to treatment wells and incubated at 37° C. luminescence values were measured at using a Molecular Devices Spectramax microplate reader.
(§2) Single Agent Studies—Cells were grown to 70% confluency, trypsinized, counted, and seeded in 96 well flat-bottom plates at a final concentration of 2.5×10^3-5×10^3 cells/well (Day 0). Cells were allowed to incubate in growth media for 24 hours. Treatment with the test agents began on Day 1 and continued for 72 hours. At the 72-hour time point, treatment-containing media was removed. Viable cell numbers are quantified by the CellTiter-Glo® cell viability assay as described above. Experiments were run with triplicate concentrations to determine growth inhibitory activity. Results from these studies were used to calculate an IC50 value (concentration of drug that inhibits cell growth by 50 percent of control) for each compound.
(§3) Data Collection—For single agent and combination studies, data from each experiment was collected and expressed as % Cell Growth using the following calculation: % Cell Growth=(ftest/fvehicle)×100
(§4) Where ftest is the luminescence of the tested sample, and fvehicle is the luminescence of the vehicle in which the drug is dissolved. Dose response graphs and IC50 values were generated using Prism 6 software (GraphPad).

BC-1 = experiment: CellTiter-Glo cell viability assay, BC-1; format: cell-based; details: Lymphoma; for IC50: Homo sapiens, BC1, BC-1, 72 hours
Method: as §1, §2, §3, §4

MFE280 = experiment: CellTiter-Glo cell viability assay, MFE280; format: cell-based; details: Uterine; for IC50: Homo sapiens, MFE-280, MFE280, 72 hours
Method: as §1, §2, §3, §4

ES2 = experiment: CellTiter-Glo cell viability assay, ES2; format: cell-based; details: Ovarian; for IC50: Homo sapiens, ES-2, ES2, 72 hours
Method: as §1, §2, §3, §4

K562 = experiment: CellTiter-Glo cell viability assay, K562; format: cell-based; details: CML; for IC50: Homo sapiens, K562, 72 hours
Method: as §1, §2, §3, §4

RAMOS = experiment: CellTiter-Glo cell viability assay, RAMOS; format: cell-based; details: Lymphoma; for IC50: Homo sapiens, 72 hours
Method: as §1, §2, §3, §4

MFE296 = experiment: CellTiter-Glo cell viability assay, MFE296; format: cell-based; details: Uterine; for IC50: Homo sapiens, MFE-296, MFE296, 72 hours
Method: as §1, §2, §3, §4

RPMI-8226 = experiment: CellTiter-Glo cell viability assay, RPMI-8226; format: cell-based; details: Myeloma; for IC50: Homo sapiens, RPMI-8226, 72 hours
Method: as §1, §2, §3, §4

MM1.S cells = experiment: CellTiter-Glo cell viability assay, MM1.S cells; format: cell-based, human; details: for IC50: Homo sapiens
Method: Cell viability in the presence of varying concentrations of the above listed compounds at different time points was used to assess cytotoxicity and the effect of the compounds on cell proliferation.
as §1, with “CellTiter-GlO®” for “CellTiter-Glo®”, “assay from” for “assay”, “reader” for “reader.”
as §2, with “agents or standard agents” for “agents”, “72 hour timepoint, treatment containing” for “72-hour time point, treatment-containing”, “CellTiter-GlO®” for “CellTiter-Glo®”, “above.” for “above. Experiments were run with triplicate concentrations to determine growth inhibitory activity.”
Data Collection—For single agent and combination studies, data from each experiment was collected and expressed as % Cell Growth using the following calculation: Cell Growth=(ftest/fvehicle)×100
Where ftest is the fluorescence of the tested sample, and fvehicle is the fluorescence of the vehicle in which the drug is dissolved. Dose response graphs and IC50 values were generated using Prism 6 software (GraphPad) using the following equation: […]
Where X is the logarithm of concentration and Y is the response. Y starts at the Bottom and goes to Top with a sigmoid shape.
as §1, §2, §3, §4

Permeability (PAMPA) = format: in vitro ADME; details: read-out: Permeabiltiy (PAMPA)
H929 = experiment: CellTiter-Glo cell viability assay, H929; format: cell-based; details: Myeloma; for IC50: Homo sapiens, NCI-H929, H929, 72 hours
Method: as §1, §2, §3, §4

SUDHL-4 = experiment: CellTiter-Glo cell viability assay, SUDHL-4; format: cell-based; details: Lymphoma; for IC50: Homo sapiens, SU-DHL-4, SUDHL-4, 72 hours
Method: as §1, §2, §3, §4

HDAC6 = HDAC6 (Homo sapiens (Human), UniProt Q9UBN7); experiment: In vitro HDAC enzyme inhibition, mobility shift; format: biochemical; details: purified enzyme
Chain of HDAC6 (Q9UBN7 whole entry): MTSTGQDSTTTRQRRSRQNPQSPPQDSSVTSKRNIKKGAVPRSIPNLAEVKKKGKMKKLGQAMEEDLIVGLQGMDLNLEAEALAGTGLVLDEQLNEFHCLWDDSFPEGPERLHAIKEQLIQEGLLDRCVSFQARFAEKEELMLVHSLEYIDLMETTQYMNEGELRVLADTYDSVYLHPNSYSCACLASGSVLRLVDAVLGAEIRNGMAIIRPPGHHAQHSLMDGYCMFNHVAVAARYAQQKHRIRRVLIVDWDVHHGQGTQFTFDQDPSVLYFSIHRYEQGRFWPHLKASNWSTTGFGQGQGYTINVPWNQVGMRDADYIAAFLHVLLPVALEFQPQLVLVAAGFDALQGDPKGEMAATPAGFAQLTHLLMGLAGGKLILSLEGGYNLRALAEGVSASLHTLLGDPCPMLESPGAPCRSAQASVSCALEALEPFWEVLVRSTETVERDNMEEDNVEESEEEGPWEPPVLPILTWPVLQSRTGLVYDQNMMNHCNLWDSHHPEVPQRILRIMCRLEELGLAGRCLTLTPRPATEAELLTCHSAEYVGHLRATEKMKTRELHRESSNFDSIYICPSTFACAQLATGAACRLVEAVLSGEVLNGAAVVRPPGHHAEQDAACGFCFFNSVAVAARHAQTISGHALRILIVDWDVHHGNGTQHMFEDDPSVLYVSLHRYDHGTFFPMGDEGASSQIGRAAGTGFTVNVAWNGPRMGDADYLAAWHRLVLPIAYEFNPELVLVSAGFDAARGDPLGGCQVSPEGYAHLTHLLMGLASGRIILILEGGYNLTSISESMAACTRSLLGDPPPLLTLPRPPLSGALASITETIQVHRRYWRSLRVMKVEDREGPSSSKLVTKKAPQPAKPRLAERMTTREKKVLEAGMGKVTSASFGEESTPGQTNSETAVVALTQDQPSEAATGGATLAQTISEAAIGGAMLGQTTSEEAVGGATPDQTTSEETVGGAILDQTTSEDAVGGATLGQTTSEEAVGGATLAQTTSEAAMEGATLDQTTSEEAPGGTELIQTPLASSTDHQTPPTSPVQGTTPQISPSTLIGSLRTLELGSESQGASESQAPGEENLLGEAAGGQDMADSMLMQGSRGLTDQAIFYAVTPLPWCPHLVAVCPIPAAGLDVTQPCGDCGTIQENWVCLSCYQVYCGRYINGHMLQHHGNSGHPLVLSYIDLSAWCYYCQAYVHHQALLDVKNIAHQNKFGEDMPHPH
Method: (§5) Purified histone deacetylase enzymes 1, 3, 6, 10 were incubated with fluorescently labeled substrate and test compounds in a standardized reaction mixture in 384 well plates. Upon termination of the reaction, samples were introduced onto microfluidic chips. Samples migrate through channels in the chips and product and substrate are separated based on the difference in their charge and mass (electrophoretic mobility shift). Enzyme activity is measured by direct comparison of the fluorescence in the product and substrate peaks and the results presented in Table 4.

HDAC10 = HDAC10 (Homo sapiens (Human), UniProt Q969S8); experiment: In vitro HDAC enzyme inhibition, mobility shift; format: biochemical; details: purified enzyme
Chain of HDAC10 (Q969S8 whole entry): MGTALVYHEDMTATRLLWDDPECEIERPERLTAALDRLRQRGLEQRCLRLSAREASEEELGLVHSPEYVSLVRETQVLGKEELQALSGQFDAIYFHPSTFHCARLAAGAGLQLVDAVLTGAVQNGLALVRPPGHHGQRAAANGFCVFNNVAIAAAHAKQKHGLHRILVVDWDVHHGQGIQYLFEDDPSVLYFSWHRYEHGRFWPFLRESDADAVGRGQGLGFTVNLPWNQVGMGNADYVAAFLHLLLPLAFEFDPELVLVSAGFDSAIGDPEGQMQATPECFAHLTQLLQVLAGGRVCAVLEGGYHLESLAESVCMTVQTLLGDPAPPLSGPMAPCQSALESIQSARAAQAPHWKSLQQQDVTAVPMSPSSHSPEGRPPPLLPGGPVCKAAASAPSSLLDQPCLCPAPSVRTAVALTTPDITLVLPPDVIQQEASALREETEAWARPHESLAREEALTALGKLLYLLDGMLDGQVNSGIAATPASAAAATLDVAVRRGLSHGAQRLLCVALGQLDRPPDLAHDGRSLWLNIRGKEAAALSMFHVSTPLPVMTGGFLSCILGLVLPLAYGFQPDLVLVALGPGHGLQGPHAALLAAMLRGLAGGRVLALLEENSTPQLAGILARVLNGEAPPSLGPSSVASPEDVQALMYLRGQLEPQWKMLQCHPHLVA
Method: as §5

HDAC1 = HDAC1 (Homo sapiens (Human), UniProt Q13547); experiment: In vitro HDAC enzyme inhibition, mobility shift; format: biochemical; details: purified enzyme
Chain of HDAC1 (Q13547 whole entry): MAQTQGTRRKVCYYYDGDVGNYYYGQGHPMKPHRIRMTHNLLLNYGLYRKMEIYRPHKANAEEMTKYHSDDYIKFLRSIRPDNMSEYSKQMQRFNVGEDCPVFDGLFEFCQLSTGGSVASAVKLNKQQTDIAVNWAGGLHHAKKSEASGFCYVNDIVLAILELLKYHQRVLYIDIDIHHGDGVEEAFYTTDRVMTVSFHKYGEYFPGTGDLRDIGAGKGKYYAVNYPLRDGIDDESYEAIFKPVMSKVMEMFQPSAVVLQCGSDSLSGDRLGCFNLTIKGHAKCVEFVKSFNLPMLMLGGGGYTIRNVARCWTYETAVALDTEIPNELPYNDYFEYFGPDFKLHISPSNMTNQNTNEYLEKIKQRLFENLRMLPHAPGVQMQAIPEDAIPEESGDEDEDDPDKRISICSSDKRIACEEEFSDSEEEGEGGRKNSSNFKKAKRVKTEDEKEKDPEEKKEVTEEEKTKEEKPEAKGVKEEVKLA
Method: as §5

HDAC3 = HDAC3 (Homo sapiens (Human), UniProt O15379); experiment: In vitro HDAC enzyme inhibition, mobility shift; format: biochemical; details: purified enzyme
Chain of HDAC3 (O15379 whole entry): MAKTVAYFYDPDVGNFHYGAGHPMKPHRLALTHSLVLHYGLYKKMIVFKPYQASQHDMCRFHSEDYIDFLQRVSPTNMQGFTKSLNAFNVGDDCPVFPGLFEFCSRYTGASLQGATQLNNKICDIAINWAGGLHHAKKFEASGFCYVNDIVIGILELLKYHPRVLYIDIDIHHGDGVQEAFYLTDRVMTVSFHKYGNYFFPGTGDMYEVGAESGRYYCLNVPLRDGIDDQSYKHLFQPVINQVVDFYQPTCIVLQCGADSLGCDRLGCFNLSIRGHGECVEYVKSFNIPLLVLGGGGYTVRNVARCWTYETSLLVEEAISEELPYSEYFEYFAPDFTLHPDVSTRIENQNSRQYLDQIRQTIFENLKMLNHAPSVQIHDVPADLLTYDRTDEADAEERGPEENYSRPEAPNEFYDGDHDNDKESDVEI
Chain of HDAC3 (Q9Y618 395-489 partner): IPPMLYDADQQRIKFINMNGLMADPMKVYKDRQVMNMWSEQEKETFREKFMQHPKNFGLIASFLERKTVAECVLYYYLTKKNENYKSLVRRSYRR
Method: as §5

Toledo = experiment: CellTiter-Glo cell viability assay, Toledo; format: cell-based; details: Lymphoma; for IC50: Homo sapiens, 72 hours
Method: as §1, §2, §3, §4

KMS-11 = experiment: CellTiter-Glo cell viability assay, KMS-11; format: cell-based; details: Myeloma; for IC50: Homo sapiens, KMS-11, 72 hours
Method: as §1, §2, §3, §4

Raji = experiment: CellTiter-Glo cell viability assay, Raji; format: cell-based; details: Lymphoma; for IC50: Homo sapiens, 72 hours
Method: as §1, §2, §3, §4

[1] = MM1.S cells, 72 hours treatment, read-out: IC50 in MM1.S
[2] = Myeloma, MM1.S, 72 hours (Table 3), read-out: IC50

Structure (SMILES): O=C(NO)c1ccc(Nc2nc3ccccc3n2CC2CCCCC2)cc1 [ID #1, 4-((1-(cyclohexylmethyl)-1H-benzo[d]imidazol-2-yl)amino)-N-hydroxybenzamide]
- IC50 (H460): 3.47 µM
- Improvement ID #1 over ID #3 Percent (H460; H460): 66.86%
- Improvement ID #1 over ID #3 fold (H460; H460): 3.02 fold
- IC50 (BC-1): 1.79 µM
- Improvement ID #1 over ID #3 Percent (BC-1; BC-1): 63.69%
- Improvement ID #1 over ID #3 fold (BC-1; BC-1): 2.75 fold
- IC50 (MFE280): 5.01 µM
- Improvement ID #1 over ID #3 Percent (MFE280; MFE280): 48.40%
- Improvement ID #1 over ID #3 fold (MFE280; MFE280): 1.94 fold
- IC50 (ES2): 3.98 µM
- Improvement ID #1 over ID #3 Percent (ES2; ES2): 69.80%
- Improvement ID #1 over ID #3 fold (ES2; ES2): 3.31 fold
- Improvement ID #1 over ID #3 Percent (K562; K562): 69.90%
- Improvement ID #1 over ID #3 fold (K562; K562): 3.32 fold
- IC50 (K562): 1.58 µM
- IC50 (RAMOS): 1.38 µM
- Improvement ID #1 over ID #3 Percent (RAMOS): 52.08%
- Improvement ID #1 over ID #3 fold (RAMOS): 2.09 fold
- IC50 (MFE296): 4.37 µM
- Improvement ID #1 over ID #3 Percent (MFE296; MFE296): 65.29%
- Improvement ID #1 over ID #3 fold (MFE296; MFE296): 2.88 fold
- IC50 (RPMI-8226): 0.66 µM
- Improvement ID #1 over ID #3 Percent (RPMI-8226; RPMI-8226): 56.29%
- Improvement ID #1 over ID #3 fold (RPMI-8226; RPMI-8226): 2.29 fold
- IC50 (MM1.S cells; [1]): 0.5 µM
- IC50 (MM1.S cells; [2]): 0.5 µM
- Improvement ID #1 over ID #3 Percent (MM1.S cells; Myeloma, MM1.S): 76.08%
- Improvement ID #1 over ID #3 fold (MM1.S cells; Myeloma, MM1.S): 4.18 fold
- Papp (Permeability (PAMPA)): 1.68 ×10⁻⁶ cm/s
- IC50 (H929): 0.83 µM
- Improvement ID #1 over ID #3 Percent (H929; H929): 39.86%
- Improvement ID #1 over ID #3 fold (H929; H929): 1.66 fold
- IC50 (SUDHL-4): 0.24 µM
- Improvement ID #1 over ID #3 Percent (SUDHL-4; SUDHL-4): 94.24%
- Improvement ID #1 over ID #3 fold (SUDHL-4; SUDHL-4): 17.38 fold
- IC50 (HDAC6): 0.0064 µM
- IC50 (HDAC10): 0.137 µM
- IC50 (HDAC1): 0.13 µM
- IC50 (HDAC3): 0.019 µM
- IC50 (Toledo): 0.81 µM
- Improvement ID #1 over ID #3 Percent (Toledo): 74.77%
- Improvement ID #1 over ID #3 fold (Toledo): 3.96 fold
- IC50 (KMS-11): 1.42 µM
- Improvement ID #1 over ID #3 Percent (KMS-11; KMS-11): 52.98%
- Improvement ID #1 over ID #3 fold (KMS-11; KMS-11): 2.13 fold
- IC50 (Raji): 1.83 µM
- Improvement ID #1 over ID #3 Percent (Raji): 62.11%
- Improvement ID #1 over ID #3 fold (Raji): 2.64 fold

Structure (SMILES): O=C(NO)c1ccc(Nc2nc3ccccc3n2C2CCCCCC2)cc1 [ID #3, 4-((1-cycloheptyl-1H-benzo[d]imidazol-2-yl)amino)-N-hydroxybenzamide]
- IC50 (H460): 10.5 µM
- IC50 (BC-1): 4.93 µM
- IC50 (MFE280): 9.71 µM
- IC50 (ES2): 13.2 µM
- IC50 (K562): 5.25 µM
- IC50 (RAMOS): 2.88 µM
- IC50 (MFE296): 12.6 µM
- IC50 (RPMI-8226): 1.51 µM
- IC50 (MM1.S cells; [1]): 2.1 µM
- IC50 (MM1.S cells; [2]): 2.09 µM
- Papp (Permeability (PAMPA)): 2.2 ×10⁻⁶ cm/s
- IC50 (H929): 1.38 µM
- IC50 (SUDHL-4): 4.17 µM
- IC50 (HDAC6): 0.0145 µM
- IC50 (HDAC10): 3.12 µM
- IC50 (HDAC1): 0.445 µM
- IC50 (HDAC3): 0.079 µM
- IC50 (Toledo): 3.21 µM
- IC50 (KMS-11): 3.02 µM
- IC50 (Raji): 4.83 µM
